Three compounds from ChEMBL document CHEMBL1933065, “Synthesis and antifungal evaluation of pyrido[1,2-a]indole-1,4-diones and benzo[f]pyrido[1,2-a]indole-6,11-diones” (2012) can be followed below.

Molecules are shown by their SMILES. ≈ marks a conversion by molar mass, not a printed value.

Broadly, the MIC is the smallest concentration in the dilution series that meets the test's criterion for growth inhibition.

Type in all cases: functional
Assay [1] concerns Candida albicans. In words: Antifungal activity against Candida albicans Berkout KCCM 50235 after 1 day by standard two fold broth dilution method. The following applies: Berkout KCCM 50235, 24 h. For orientation: Dilution methods test growth across graded concentrations, often in twofold steps.
In assay [2] the test system is Candida tropicalis. In words: Antifungal activity against Candida tropicalis Berkout KCCM 50662 after 1 day by two fold broth dilution method. The following applies: Berkout KCCM 50662, 24 h.
Assay [3] relates to Pichia kudriavzevii. In words: Antifungal activity against Candida krusei Berkout KCCM 11655 after 1 day by two fold broth dilution method. The following applies: Berkout KCCM 11655, 24 h.
Assay [4] deals with Cryptococcus neoformans. In words: Antifungal activity against Cryptococcus neoformans Berkout KCCM 50564 after 1 day by two fold broth dilution method. The following applies: Berkout KCCM 50564, 24 h.
Assay [5] deals with Aspergillus niger. As to the kind of experiment: Antifungal activity against Aspergillus niger KCTC 1231 after 2 days by two fold broth dilution method. The following applies: KCTC 1231, 48 h.
Assay [6] has as its system Aspergillus flavus. As to the kind of experiment: Antifungal activity against Aspergillus flavus KCCM 11899 after 2 days by two fold broth dilution method. The following applies: KCCM 11899, 48 h.

For `COc1ccn2c3c(c(C)c2c1)C(=O)c1ccccc1C3=O`, the MIC is 25 µg/mL (≈ 85.8 µM) in assay [1]; above 100 µg/mL in assay [2]; 50 µg/mL (≈ 172 µM) in assay [3]; 25 µg/mL (≈ 85.8 µM) in assay [4]; 25 µg/mL (≈ 85.8 µM) in assay [5]; 50 µg/mL (≈ 172 µM) in assay [6].
For `CCOC(=O)c1c2c(n3ccccc13)C(=O)C(C)=C(C)C2=O`, the MIC turned out to be 12.5 µg/mL (≈ 42 µM) in assay [1]; 6.3 µg/mL (≈ 21.2 µM) in assay [2]; 3.2 µg/mL (≈ 10.8 µM) in assay [3]; 6.3 µg/mL (≈ 21.2 µM) in assay [4]; 6.3 µg/mL (≈ 21.2 µM) in assay [5]; 3.2 µg/mL (≈ 10.8 µM) in assay [6].
For `CCc1ccn2c3c(c(C)c2c1)C(=O)c1ccccc1C3=O`, the MIC in assay [1] turned out to be 12.5 µg/mL (≈ 43.2 µM); in assay [2], 12.5 µg/mL (≈ 43.2 µM); in assay [3] it was 6.3 µg/mL (≈ 21.8 µM); in assay [4] it was 6.3 µg/mL (≈ 21.8 µM); in assay [5], 50 µg/mL (≈ 173 µM); in assay [6], 3.2 µg/mL (≈ 11.1 µM).
